This note sets out measurements from patent US20070004805A1, “Process for preparation of liquid dosage form containing sodium 4-phenylbutyrate” (Navinta LLC, priority 2005, published 2007).

Data set [1] is described as follows: cold storage of the highly concentrated aqueous solution (freezing / precipitation). Type of data set: physicochemical. Here is the method: As described in more detail below, this invention describes a process of preparing a highly concentrated solution of sodium 4-phenylbutyrate, having a concentration 500 mg/mL in water by dissolving 5 g of sodium 4-phenylbutyrate in about 3.5 mL water to yield a solution volume of about 10 mL. The temperature can be room temperature (25° C.) or an elevated temperature, preferably in the range of up to about 80° C. We found it is more difficult to make this solution at room temperature, but the solution can be made at a higher temperature and then cooled to room temperature without precipitating resulting. […] Therefore, due to likely micelle formation of sodium 4-phenylbutyrate (which we term the self-associated polymeric form), the high concentration of about 500 mg/mL can be achieved in solution. […] This novel invention thus provides a dosage form better able to help the patients presently administered with a high volume dosage of sodium 4-phenylbutyrate. This invention is not intended to be limited by this discussion of micellar phases, or the presence or absence of other high concentration phases (such as sponge or L3, worm-like micelles, sheets and other laminar phases) that may be formed depending on the particular processing conditions and/or materials used. In the follow description the term “solution” is used without regard to whether a micellar phase is present.
About 160 g of sodium 4-phenylbutyrate was transferred to a 250 mL volumetric flask to which was then added about 90 mL of water and agitated with heating at a temperature 70° C. to dissolve. The mixture was cooled to 25° C. and 0.5 g of sodium benzoate was added and mixed well. This solution was compounded to 250 mL with water.

The nature of data set [2]: solubility / achievable concentration of sodium 4-phenylbutyrate in water. Type of data set: physicochemical. Here is the method: In another embodiment, this invention provides a process of preparing a supersaturated solution of sodium 4-phenylbutyrate in water by adding sufficient water to a known quantity of sodium 4-phenylbutyrate at an elevated temperature of about 30° to about 80° C. to produce a concentration of about 600 mg/mL.
As described in more detail below, this invention describes a process of preparing a highly concentrated solution of sodium 4-phenylbutyrate, having a concentration 500 mg/mL in water by dissolving 5 g of sodium 4-phenylbutyrate in about 3.5 mL water to yield a solution volume of about 10 mL. The temperature can be room temperature (25° C.) or an elevated temperature, preferably in the range of up to about 80° C. We found it is more difficult to make this solution at room temperature, but the solution can be made at a higher temperature and then cooled to room temperature without precipitating resulting. […] Therefore, due to likely micelle formation of sodium 4-phenylbutyrate (which we term the self-associated polymeric form), the high concentration of about 500 mg/mL can be achieved in solution. […] This novel invention thus provides a dosage form better able to help the patients presently administered with a high volume dosage of sodium 4-phenylbutyrate. […]

Regarding `O=C([O-])CCCc1ccccc1.[Na+]` [sodium 4-phenylbutyrate], the “freezing of the solution” value in data set [1] (600 mg/mL solution at 0° C.) was “does not freeze”. Besides, the “freezing or precipitation upon storage” value in data set [1] (about 500 mg/mL solution, 0° C. for two days) is “did not freeze or precipitate out”. For the same compound, the “precipitation on further cooling” value in data set [1] (about 500 mg/mL solution, cooled to −4° C.) is listed as “precipitation observed”. The “high concentration achieved in solution” value in data set [2] (in water, made at room temperature (25° C.) or up to about 80° C., then cooled without precipitation) is reported as “about 500 mg/mL”. In data set [2] (supersaturated solution in aqueous medium), the “maximum drug concentration achieved in the formulation” value is reported as “about 700 mg/mL”.
